Reference: PMC6627609, “Targeting Quorum Sensing: High-Throughput Screening to Identify Novel LsrK Inhibitors” (International Journal of Molecular Sciences, 2019)
Where “and” joins values, the source holds several entries; their conditions need not be identical. Equal values may be shown once. Read-outs that look alike come from different tables or passages of the source.

Assays:
[1] = target: LsrK (Salmonella typhimurium, UniProt Q8ZKQ6); assay: biochemical; assay type: biochemical, S. typhimurium; conditions: for Inhibition (%): 50 µM
Sequence of LsrK (Q8ZKQ6 whole entry): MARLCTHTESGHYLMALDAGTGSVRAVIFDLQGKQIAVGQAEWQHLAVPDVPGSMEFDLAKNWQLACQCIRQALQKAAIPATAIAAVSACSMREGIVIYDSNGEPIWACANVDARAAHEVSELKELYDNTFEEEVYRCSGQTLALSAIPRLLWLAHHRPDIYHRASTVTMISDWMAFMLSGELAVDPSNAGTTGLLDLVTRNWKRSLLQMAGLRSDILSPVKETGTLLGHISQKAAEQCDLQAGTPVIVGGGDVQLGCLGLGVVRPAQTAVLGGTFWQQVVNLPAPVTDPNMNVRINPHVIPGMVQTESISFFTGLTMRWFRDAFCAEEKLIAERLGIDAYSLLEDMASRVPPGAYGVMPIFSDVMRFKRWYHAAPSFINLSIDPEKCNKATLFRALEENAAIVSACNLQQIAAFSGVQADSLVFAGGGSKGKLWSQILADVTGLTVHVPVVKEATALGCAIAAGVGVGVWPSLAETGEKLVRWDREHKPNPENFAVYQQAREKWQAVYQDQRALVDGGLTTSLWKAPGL

[2] = target: T1, His-LsrK (Salmonella typhimurium, UniProt Q8ZKQ6); assay: Thermal shift assay; assay type: binding, S. typhimurium; conditions: for shift in the Tm of His-LsrK: mean ± 95% CI; for shift in the Tm of His-LsrK (in words): dose range of test compound
T1 sequence (Q8ZKQ6 whole entry): as above
Description: Compounds were added to qPCR plates by Echo acoustic dispenser with a DMSO backfill to maintain a constant final concentration of DMSO in each well (the assay is tolerant up to 8% DMSO with no effect on Tm of LsrK). LsrK protein was added at a concentration of 1 µg per well in a volume of 10 µL with 1× Thermo thermal shift dye or 5× Sypro Orange dye (used for aurin tricarboxylic acid as this compound fluoresces with Thermo dye in 25 mM TEA, 200 µM MgCl2, pH 7.1). Appropriate DMSO-only negative controls and 1 mM ATP/DMSO positive controls were included in each test occasion. Using an Applied Biosystems Quant Studio 5 qPCR machine (Thermo Fisher Scientific, Waltham, MA, USA) the following thermal shift protocol was used: step 1—hold at 25 °C for 1 min; step 2—heat at 0.05 °C/s dissociation then hold at 99 °C for 1 min. Filter setting for Thermo dye: Ex/Em 580/623 nm and for Sypro Orange dye: Ex/Em 470/520 nm.

[3] = system: mouse; conditions: ref MicroSource annotations, cited from earlier work
[4] = target: T1, His-LsrK; assay: MST assay; assay type: binding, S. typhimurium; conditions: 95% CI
[5] = system: His-tagged control peptide or SDS denatured His-LsrK; assay: MST assay, specificity controls; assay type: binding
[6] = system: E. coli LW7 pLW11; assay: AI-2 QS interference assay; assay type: cell-based; conditions: for IC50: dose-response in the presence of PAβN, read-out: IC50 AI-2 QS inhibition
[7] = cited from earlier work
[8] = system: rat; conditions: cited from earlier work
[9] = system: E. coli pBAC-lacZ; assay: Control strain β-gal assay (QS-independent lac promoter); assay type: cell-based
[10] = ip, ref MicroSource annotations
[11] = po, ref MicroSource annotations

Compound	inhibition at 50 µM [1]	Inhibition (%) [1]	other results
CCCCCCCCCCCCCCCCC(C(=O)O)C(O)(CC(=O)O)C(=O)O (centres unmarked) [AGARIC ACID]	157%	–	IC50 [1]: 7 µM; shift in the Tm of His-LsrK ([2]; 10 µM): −4.7 ± 0.70 °C
CN[C@@H]1[C@@H](O[C@H]2O[C@H](CO)[C@@H](N)[C@H](O)[C@H]2O)OC2C[C@@H](N)[C@@H](O[C@H]3[C@H](O)[C@@H](O)[C@H](N)C[C@@H]3N)OC2[C@@H]1O (some centres unmarked) [APRAMYCIN]	3%	–	LD50 ([3]; iv): 280 mg/kg
O=C(O)C1=CC(=C(c2ccc(O)c(C(=O)O)c2)c2ccc(O)c(C(=O)O)c2)C=CC1=O [AURIN TRICARBOXYLIC ACID]	96%	–	IC50 [1]: 1 µM; shift in the Tm of His-LsrK ([2]; 20 µM): −0.85 ± 0.38 °C; Kd [4]: 0.408 ± 0.0699 µM; binding in MST to control peptide or SDS denatured His-LsrK [5]: no binding; inhibition of AI-2 mediated QS ([6]; 10 µM, in the presence of PAβN): No significant activity; inhibition of AI-2 mediated QS ([6]; 50 µM, in the presence of PAβN): No significant activity
CC1=C(O)C(=O)C=C2C1=CC=C1[C@@]2(C)CC[C@@]2(C)[C@@H]3C[C@](C)(C(=O)O)CC[C@]3(C)CC[C@]12C [CELASTROL]	109%	–	IC50 [1]: 4 µM; solubility [7]: poor solubility
C[C@@H]1CC[C@@]2(OC1)O[C@H]1C[C@H]3[C@@H]4CC=C5C[C@@H](O)CC[C@]5(C)[C@H]4CC[C@]3(C)[C@H]1[C@@H]2C [DIOSGENIN]	0%	–	LD50 [8, 10]: 4872 mg/kg; LD50 ([3]; po): > 8000 mg/kg
C=C1CC[C@H](O)C/C1=C/C=C1\CCC[C@]2(C)[C@@H]([C@H](C)/C=C/[C@H](C)C(C)C)CC[C@@H]12 [ERGOCALCIFEROL]	56%	–	LD50 ([8]; in vivo, po): 56 mg/kg
CC(C)=CCC[C@]1(C)C=Cc2c(O)c3c(c(CC=C(C)C)c2O1)O[C@]12C(=C[C@@H]4C[C@H]1C(C)(C)O[C@@]2(C/C=C(/C)C(=O)O)C4=O)C3=O [GAMBOGIC ACID]	89%	–	LD50 [8, 10]: 88 mg/kg
C[C@]1(OC(=O)/C=C/c2ccccc2)C[C@@H](O)[C@]2(O)C=CO[C@@H](O[C@@H]3O[C@H](CO)[C@@H](O)[C@H](O)[C@H]3O)[C@@H]21 [HARPAGOSIDE]	108%	–	IC50 [1]: 10 µM; shift in the Tm of His-LsrK (in words) [2]: significant, dose-dependent, positive shift in the Tm; Kd [4]: 18.4 ± 0.9 µM; binding in MST to control peptide or SDS denatured His-LsrK [5]: No binding; inhibition of AI-2 mediated QS ([6]; 10 µM, in the presence of PAβN): only minor; inhibition at 50 µM ([6]; Escherichia coli, 50 µM, in the presence of PAβN, read-out: inhibition of AI-2 mediated QS): ~50%; IC50 ([6]; Escherichia coli): 14 µM
C[C@H](CCC(=O)O)[C@H]1CC[C@H]2[C@@H]3CC[C@@H]4C[C@H](O)CC[C@]4(C)[C@H]3CC[C@]12C [LITHOCHOLIC ACID]	2%	–	LD50 ([3]; po): 3900 mg/kg
CC[C@@H](C)C(=O)O[C@H]1[C@H](O)[C@H]2[C@@H](CN3C[C@@H](C)CC[C@H]3[C@@]2(C)O)[C@@H]2C[C@]34O[C@]5(O)[C@@H](OC(=O)[C@@](C)(O)CC)CC[C@@]3(C)[C@@H]5[C@@H](OC(C)=O)[C@@H](OC(C)=O)[C@H]4[C@@]21O [PROT[…]]	1%	–	LD50 [8, 11]: 5 mg/kg
O=C1C=CC(=C(c2ccc(O)cc2)c2ccc(O)cc2)C=C1 [ROSOLIC ACID]	119%	–	IC50 [1]: 1 µM; shift in the Tm of His-LsrK (in words) [2]: positively stabilizes His-LsrK in thermal shift at high concentrations; Kd [4]: 100 µM and ~100 µM; binding in MST to control peptide or SDS denatured His-LsrK [5]: No binding; inhibition of AI-2 mediated QS ([6]; 50 µM, in the presence of PAβN): nearly complete inhibition; inhibition at 10 µM ([6]; Escherichia coli, 10 µM, in the presence of PAβN, read-out: inhibition of AI-2 mediated QS): 68%; IC50 ([6]; Escherichia coli): 11 µM; effect on β-gal expression or activity in the control strain [9]: marginally affected
CC(C)[C@@H]1NC(=O)[C@H](C)OC(=O)[C@@H](C(C)C)NC(=O)[C@@H](C(C)C)OC(=O)[C@H](C(C)C)NC(=O)[C@H](C)OC(=O)[C@@H](C(C)C)NC(=O)[C@@H](C(C)C)OC(=O)[C@H](C(C)C)NC(=O)[C@H](C)OC(=O)[C@@H](C(C)C)NC(=O)[C@@H](C(C)C)OC1=O [VALINOMYCIN]	1%	–	LD50 [8, 11]: 4 mg/kg
O.O=C(O)[C@@H]1[C@H]2C[C@H]3c4[nH]c5ccccc5c4CCN3C[C@@H]2CC[C@@H]1O [YOHIMBIC ACID HYDRATE]	–	1	–
Cc1cn([C@H]2C[C@H](N=[N+]=[N-])[C@@H](CO)O2)c(=O)[nH]c1=O [ZIDOVUDINE [AZT], ZIDOVUDINE]	36%	–	–
C=CCCCCCCCCC(=O)[O-].C=CCCCCCCCCC(=O)[O-].[Zn+2] [ZINC UNDECYLENATE]	–	21	–
CC(C)/C(O)=C1/C(=O)O[C@@H](c2ccoc2)[C@]2(C)C(O)[C@@H](O)[C@@]34OC5(C)OC67CC(C)(C(O)[C@]6(O)[C@@H](O)[C@]3(O5)C12)[C@H](CC(=O)O)[C@]74C (some centres unmarked) [[…] OF BUSSEIN]	1%	–	–
CC(C)=CCCC1(C)C=Cc2c(O)c3c(c(CC=C(C)C)c2O1)OC12C(=CCCC1C(C)(C)O[C@@]2(C/C=C(\C)C(=O)O)C(=O)O)C3=O (some centres unmarked) [[…]]	75%	–	–
CC(C)NNC(=O)c1ccncc1 [[…]]	0%	–	–
CCCCCC(=O)Cc1cc(O)cc(O)c1C(=O)Oc1cc(CC(=O)CCCCC)c(C(=O)O)c(OC)c1 [[…]]	0%	–	–
COC(=O)CC1C(C)(C)C(OC(C)=O)[C@@H]2[C@@H](OC(C)=O)[C@]34O[C@@]2(O)[C@]1(C)C3CC[C@]1(C)C4=CC(=O)O[C@H]1c1ccoc1 (some centres unmarked) [[…]]	2%	–	–
COc1cc(-c2coc3cc(O)c(OC)c(O)c3c2=O)cc(O)c1OC [[…]]	5%	–	–
Cc1cc(O)c(C=O)c2c1C(=O)Oc1c(C)c(O)c3c(c1O2)C(O)OC3=O (centres unmarked) [[…]]	145%	–	–
O=C(/C=C/C(=O)Oc1ccccc1C(=O)O)Oc1ccccc1C(=O)O [[…]]	2%	–	–
N#C/C(=C\c1cccc(O)c1)C(=O)O [alpha-CYANO-3-HYDROXYCINNAMIC ACID]	2%	–	–
N#C/C(=C\c1ccc(O)cc1)C(=O)O [alpha-CYANO-4-HYDROXYCINNAMIC ACID]	1%	–	–

Compound	inhibition at 50 µM [1]	Inhibition (%) [1]	other results
CC(=O)O[C@@H]1CC2C(C)(C)[C@H](O)CC[C@]2(C)C2CC[C@@]3(C)[C@H](c4ccoc4)OC(=O)C4OC43[C@@]21C (stereo partly drawn) [alpha-DIHYDROGEDUNOL]	–	1	–
COc1cc2c(cc1OC)[C@@H]1C(=O)c3c(O)cc4c(c3O[C@@H]1CO2)C=CC(C)(C)O4 [alpha-TOXICAROL]	–	10	–
CC1=C(/C=C/C(C)=C/C=C/C(C)=C/C=C/C=C(C)/C=C/C=C(C)/C=C/C2=C(C)CCCC2(C)C)C(C)(C)CCC1 [beta-CAROTENE]	1%	–	–
C/C=C(\C)C(=O)O[C@H]1[C@H](OC(C)=O)[C@@]2(CO)C(CC1(C)C)C1=CC[C@@H]3[C@@]4(C)CC[C@H](O[C@@H]5O[C@H](C(=O)O)[C@@H](O[C@@H]6O[C@H](CO)[C@@H](O)[C@H](O)[C@H]6O)[C@H](O)[C@H]5O[C@@H]5O[C@H](CO)[C@@H](O)[C@H](O)[C@H]5O)[C@H](CO)C4CC[C@@]3(C)[C@@]1(C)C[C@H]2O (stereo partly drawn) [beta-ESCIN]	129%	–	–
NC(C(=O)O)C(O)C(=O)O (stereo not drawn) [d.l-threo-3-HYDROXYASPARTIC ACID]	–	3	–
CC(=O)Oc1cccc(C)c1 [meta-CRESYL ACETATE]	–	1	–
AGELASINE	–	102	–
ASARININ (-)	–	1	–
BACITRACIN	–	5	–
BENZALKONIUM CHLORIDE	–	121	–
BERBAMINE HYDROCHLORIDE	–	1	–
CHLOROPHYLLIDE Cu COMPLEX Na SALT	–	104	–
CRESOL	–	0	–
GARLICIN	–	10	–
GRAMICIDIN	–	0	–
HECOGENIN	–	2	–
IVERMECTIN	–	1	–
KHAYANTHONE	–	11	–
MANGANESE TETRAKIS(4-CARBOXYPHENYL)PORPHYRIN CHLORDE	–	1	–
MECLOCYCLINE SULFOSALICYLATE	–	93	–
METHIONINE SULFOXIMINE (L)	–	2	–
NEOMYCIN SULFATE	–	1	–
POLYMYXIN B SULFATE	–	48	–
TANNIC ACID	–	94	–
TEICOPLANIN [TEICOPLANIN [A(2-1) shown]]	–	148%	–
